Reference: US20050191283A1, “Methods of treating NFAT-related disorders” (priority 2003, published 2005)
Entries after “also recorded” stand apart in the source; their conditions may differ.

What was measured:
[1] = tested on: IFN-γ expression in UCB T lymphocytes; experiment: Intracellular IFN-γ staining in gated CD3+ cells of UCB MNC; assay type: cell-based, human; conditions: for average percentage of T cells producing IFN-γ: whole UCB MNC
Method: (§1) Human umbilical cord blood from full-term deliveries by vaginal or caesarean sections and adult peripheral blood from healthy donors was collected according to guidelines by the Institutional Review Board at University Hospitals of Cleveland. Mononuclear cells (MNC) were isolated by gradient centrifugation, as previously described (6) and used immediately fresh.
(§2) Total MNC were stimulated in bulk culture as previously described (6). Briefly, 2×10^6 cells/ml were stimulated with 2 μg/ml of concanavalin A (ConA) (Sigma Chemical Co, St Louis, Mo.) in complete RPMI medium (Gibco BRL, Gaithersburg, Md.), containing 10% fetal bovine serum (Gibco BRL), 1 mM Sodium-pyruvate, 0.1 mM nonessential amino acids, 10 mM HEPES and 58 μM 2-mercaptoethanol (Sigma Chemical Co), in presence or absence of the manufacturer's recommended concentration of 1 μg/ml of cyclosporin A (CsA) (Sigma Chemical Co), as previously described (7). Where specified, IFN-γ (Roche, Indianapolis, Ind.) was added at indicated concentrations, or neutralizing anti-IFN-γ antibody (R&D Systems, Minneapolis, Minn.) was added at a concentration of 0.25-2 μg/ml. Purified T cells were stimulated as described (26), with plate-bound anti-CD3 (1 μg/ml) and soluble anti-CD28 (5 μg/ml) monoclonal antibodies. Elispot assays were performed as previously described (27). Briefly, ImmunoSpot plates M200 (Cellular Technology Limited, Cleveland Ohio) were coated with capture antibody for IFN-γ M700A-E (2 μg/ml; Endogen, Woburn, Mass.), washed and MNC were plated in complete RPMI medium with 5% ABO serum (Gemini Bioproducts, Calmasas, Calif.)+1% L-glutamine, at 3×10^5 per well. Cells were stimulated with irradiated 3×10^5 T-cell-depleted MNC from a healthy adult or cord blood. T cells were depleted with RosetteSep (StemCell Technologies, Vancouver, Canada), according to manufacturer's directions. After 24 h of stimulation, plates were washed and incubated over night with secondary biotinylated detection antibodies against IFN-γ M701 (0.5 μg/ml; Endogen, Woburn, Mass.). Streptavidin-HRP conjugate (Dako Corp., Carpenteria Calif.) was added and the spots were visualized using the HRP-substrate AEC (Pierce Pharmaceuticals, Rockford Ill.), and subjected to image analysis on a Series 1 ImmunoSpot Image Analyzer (Cellular Technology, Cleveland, Ohio) specifically designed for automated evaluation of ELISPOTs.
MNC from UCB were depleted of monocytes by using monoclonal antibody against CD11b (Pharmingen), followed by anti-IgG magnetic bead (Dynal) depletion as above, or by using anti-CD14 microbeads (Miltenyi Biotech Inc., Auburn, Calif.) and AutoMACS (Miltenyi Biotech Inc.), according to manufacturer's protocol.
Intracellular IFN-γ staining was performed as described previously (6, 7). […] 1×10^6 cells were stained for 30 minutes with the following antibodies: anti-IFN-γ-FITC or -PE (R&D Systems), anti-CD3-APC (Pharmingen), and anti-CD69-PE (Pharmingen) or -PerCP (Becton Dickinson, San Jose, Calif.) and the corresponding isotype controls (Pharmingen, Becton Dickinson). 20,000-80,000 events were acquired on a calibrated Elite ESP flow cytometer (Coulter, Miami, Fla.) and data were analyzed with WinList software (Verity Software House Inc, Topsham, Minn.). For intracellular staining of NFATc2, the same monoclonal antibody clone as used in immunoblotting was custom FITC-conjugated (Transduction Laboratories) and used at a titrated concentration of 1 μg/10^6 cells.

[2] = tested on: NFATc2 expression in UCB T lymphocytes; experiment: NFATc2 protein expression by intracellular flow cytometry in gated CD3+ cells of UCB MNC; assay type: cell-based, human; conditions: for NFATc2 expression (dual staining for NFATc2 and IFN-γ): ConA alone or ConA + 100 U/ml IFN-γ
Method: as §1, §2
Intracellular IFN-γ staining was performed as described previously (6, 7). Briefly, MNC were stimulated for the indicated time points, for the last 6-8 h in the presence of 5 μg/ml of Brefeldin A (Sigma Chemical Co), and permeabilized. […] 20,000-80,000 events were acquired on a calibrated Elite ESP flow cytometer (Coulter, Miami, Fla.) and data were analyzed with WinList software (Verity Software House Inc, Topsham, Minn.). […]

[3] = tested on: IFN-γ expression in purified adult T cells; experiment: Intracellular IFN-γ staining in purified adult T cells; assay type: cell-based, human; conditions: anti-CD3/CD28 24 h, exogenous IFN-γ 100 U/ml
Method: as §1
(§3) Total MNC were stimulated in bulk culture as previously described (6). Briefly, 2×10^6 cells/ml were stimulated with 2 μg/ml of concanavalin A (ConA) (Sigma Chemical Co, St Louis, Mo.) in complete RPMI medium (Gibco BRL, Gaithersburg, Md.), containing 10% fetal bovine serum (Gibco BRL), 1 mM Sodium-pyruvate, 0.1 mM nonessential amino acids, 10 mM HEPES and 58 μM 2-mercaptoethanol (Sigma Chemical Co), in presence or absence of the manufacturer's recommended concentration of 1 μg/ml of cyclosporin A (CsA) (Sigma Chemical Co), as previously described (7). Where specified, IFN-γ (Roche, Indianapolis, Ind.) was added at indicated concentrations, or neutralizing anti-IFN-γ antibody (R&D Systems, Minneapolis, Minn.) was added at a concentration of 0.25-2 μg/ml. […]
(§4) Intracellular IFN-γ staining was performed as described previously (6, 7). […] 20,000-80,000 events were acquired on a calibrated Elite ESP flow cytometer (Coulter, Miami, Fla.) and data were analyzed with WinList software (Verity Software House Inc, Topsham, Minn.). […]

[4] = tested on: IFN-γ expression in purified UCB T cells; experiment: Intracellular IFN-γ staining in purified UCB T cells; assay type: cell-based, human
Method: as §1, §3, §4

[5] = tested on: NFATc2 expression in adult T lymphocytes; experiment: NFATc2 protein expression by intracellular flow cytometry in gated CD3+ cells of stimulated adult MNC; assay type: cell-based, human; conditions: adult MNC stimulated 24 h, exogenous IFN-γ 100 U/ml
Method: as §1, §3, §4

[6] = tested on: IFN-γ expression by UCB MNC; conditions: exogenous IL-12 added to the stimulation conditions; cited from earlier work
[7] = experiment 1, whole UCB MNC, 24 h
[8] = experiment 2, whole UCB MNC, 24 h
[9] = experiment 3, whole UCB MNC, 24 h
[10] = experiment 4, whole UCB MNC, 24 h

Molecule: C[C@H]1CCC/C=C/[C@@H]2C[C@H](O)C[C@H]2[C@H](O)/C=C/C(=O)O1 [Brefeldin A, reference compound]
- upregulation of IFN-γ in UCB T cells ([1]; UCB MNC, ConA ± IFN-γ 100 U/ml, BFA added immediately and for the whole stimulation (BFA 24 h)): no upregulation of IFN-γ could be observed

Molecule: concanavalin A [ConA, reference compound]
- NFATc2 expression (dual staining for NFATc2 and IFN-γ) [2]: increase in NFATc2 upregulation
- IFN-γ expression ([1]; UCB MNC, ConA alone): only a slight increase in IFN-γ expression
- percentages of CD3+ cells positive for IFN-γ staining [1, 7]: 0.96%
- percentages of CD3+ cells positive for IFN-γ staining [1, 8]: 0.78%
- percentages of CD3+ cells positive for IFN-γ staining [1, 9]: 0.96%
- percentages of CD3+ cells positive for IFN-γ staining [1, 10]: 1.05%
- average percentage of T cells producing IFN-γ ([1]; n=4): 0.9%

Molecule: TNF-A
- upregulation of IFN-γ expression ([1]; UCB MNC, ConA 24 h, TNF-A (1 ng/ml) or IL-2 added in place of IFN-γ): did not result in upregulation of IFN-γ expression

Molecule: IFN-γ: IFN-γ (Roche, Indianapolis, Ind.) added exogenously during stimulation
- IFN-γ expression [3]: no increase in IFN-γ expression was observed
- IFN-γ rescue effect ([4]; ConA, IFN-γ added): no IFN-γ rescue effect was observed
- IFN-γ expression ([4]; anti-CD3/CD28 24 h, exogenous IFN-γ 100 U/ml): could not be rescued
- NFATc2 expression [5]: further upregulation of NFATc2
- NFATc2 protein expression ([2]; ConA 16 h, added IFN-γ 10-1,000 U/ml, gated CD3+ cells): increased in a dose dependent manner
- NFATc2 expression (dual staining for NFATc2 and IFN-γ) [2]: strong increases of NFATc2 expression
- NFATc2 levels ([2]; absence of stimulation, IFN-γ alone 100 U/ml): intermediate between unstimulated and stimulated T lymphocytes; also recorded: only slightly increased NFATc2 expression
- IFN-γ-mediated rescue effect ([1]; UCB MNC depleted of B cells and NK cells): did not result in a significant loss of the IFN-γ-mediated rescue effect
- average percentage of IFN-γ producing T cells ([1]; UCB MNC depleted of monocytes prior to stimulation, ConA + IFN-γ, n=4): 1.0%
- percentages of IFN-γ-expressing T lymphocytes ([1]; UCB MNC, ConA 24 h, exogenous IFN-γ 100 U/ml): rose close to that measured in adult T lymphocytes
- lowest dose of exogenous IFN-γ with effective IFN-γ rescue ([1]; UCB MNC, ConA stimulation, dose titrated down): 50 U/ml
- IFN-γ expression ([1]; UCB MNC, no stimulation, IFN-γ alone 100 U/ml): did not stimulate IFN-γ expression
- percentages of CD3+ cells positive for IFN-γ staining ([1]; experiment 1, UCB MNC depleted of CD11b, 24 h): 0.89%
- percentages of CD3+ cells positive for IFN-γ staining [1, 7]: 1.38%
- percentages of CD3+ cells positive for IFN-γ staining ([1]; experiment 2, UCB MNC depleted of CD11b, 24 h): 0.92%
- percentages of CD3+ cells positive for IFN-γ staining [1, 8]: 1.41%
- percentages of CD3+ cells positive for IFN-γ staining ([1]; experiment 3, UCB MNC depleted of CD11b, 24 h): 1.30%
- percentages of CD3+ cells positive for IFN-γ staining [1, 9]: 1.74%
- percentages of CD3+ cells positive for IFN-γ staining ([1]; experiment 4, UCB MNC depleted of CD14, 24 h): 1.07%
- percentages of CD3+ cells positive for IFN-γ staining [1, 10]: 1.83%
- average percentage of T cells producing IFN-γ ([1]; n=4): 1.6%

B1: IL-12: exogenous cytokine, literature result (ref 44) (protein, UniProt P29459 23-219; P29460 23-328, looked up)
Interleukin-12 subunit alpha: RNLPVATPDPGMFPCLHHSQNLLRAVSNMLQKARQTLEFYPCTSEEIDHEDITKDKTSTVEACLPLELTKNESCLNSRETSFITNGSCLASRKTSFMMALCLSSIYEDLKMYQVEFKTMNAKLLMDPKRQIFLDQNMLAVIDELMQALNFNSETVPQKSSLEEPDFYKTKIKLCILLHAFRIRAVTIDRVMSYLNAS
Interleukin-12 subunit beta: IWELKKDVYVVELDWYPDAPGEMVVLTCDTPEEDGITWTLDQSSEVLGSGKTLTIQVKEFGDAGQYTCHKGGEVLSHSLLLLHKKEDGIWSTDILKDQKEPKNKTFLRCEAKNYSGRFTCWWLTTISTDLTFSVKSSRGSSDPQGVTCGAATLSAERVRGDNKEYEYSVECQEDSACPAAEESLPIEVMVDAVHKLKYENYTSSFFIRDIIKPDPPKNLQLKPLKNSRQVEVSWEYPDTWSTPHSYFSLTFCVQVQGKSKREKKDRVFTDKTSATVICRKNASISVRAQDRYYSSSWSEWASVPCS
- IFN-γ expression by UCB MNC [6]: could be increased
